Data reported in patent US8962842B2, “2-pyridone antimicrobial compositions” (priority 2010, dated 2015).
pIC50: −log10 of the molar value. Like-named read-outs stand apart in the source and are kept apart here.

Tests used:
[1] = tested on: Haemophilus influenza (5 strains); experiment: MIC range, broader panel of Quotient Bioresearch strains (Table 4); type: cell-based, Haemophilus influenzae; conditions: for MIC50: 16 h, Median of the strain panel
[2] = tested on: Group C Streptococcus (4 strains); experiment: MIC range, broader panel of Quotient Bioresearch strains (Table 3); conditions: for MIC50: read-out: MIC Range Median, Group C Streptococcus (4 strains)
[3] = tested on: Streptococcus pyogenes (4 strains); experiment: as above; conditions: for MIC50: read-out: MIC Range Median, Streptococcus pyogenes (4 strains)
[4] = tested on: Klebsiella pneumonia (4 strains); experiment: MIC range, broader panel of Quotient Bioresearch strains (Table 4); type: cell-based; conditions: Klebsiella pneumoniae; for MIC50: read-out: MIC Range Median, Klebsiella pneumonia (4 strains)
[5] = tested on: Staphylococcus aureus (16 strains); experiment: MIC range, broader panel of Quotient Bioresearch strains (Table 3); conditions: for MIC50: read-out: MIC Range Median, Staphylococcus aureus (16 strains)
physchem = type: physicochemical; conditions: thermodynamic from solid
Experimental: The solutions were incubated at room temperature for 24 hours before quantification by HPLC detection. Aqueous solubility was evaluated in simulated gastric fluid (SGF), simulated intestinal fluid (SIF) and phosphate buffer saline (PBS) pH 7.4. Aqueous solubility is expressed in Table 11 as mean solubility in μM.

bacterial gyrase = bacterial gyrase (Escherichia coli, UniProt P0AES4+P0AES6); experiment: Inhibition of topoisomerases activity in vitro, Topogen protocol TG1003 (Table 7); type: biochemical
[6] = tested on: Streptococcus pneumonia (5 strains); experiment: MIC range, broader panel of Quotient Bioresearch strains (Table 3); conditions: Streptococcus pneumoniae; for MIC: read-out: MIC Range Low, Streptococcus pneumonia (5 strains); for MIC50: read-out: MIC Range Median, Streptococcus pneumonia (5 strains)
[7] = tested on: Burkholderia cepacia (5 strains); experiment: MIC range, broader panel of Quotient Bioresearch strains (Table 4); type: cell-based; conditions: for MIC50: read-out: MIC Range Median, Burkholderia cepacia (5 strains)
[8] = target: bacterial topoisomerase IV (Escherichia coli, UniProt P0AFI2+P20083); experiment: Inhibition of topoisomerases activity in vitro, Topogen protocol TG1007 (Table 7); type: biochemical
human topoisomerase I = target: T1, human topoisomerase I (Homo sapiens, UniProt P11387); experiment: Inhibition of topoisomerases activity in vitro, Topogen protocol TG1015 (Table 7); type: biochemical; conditions: read-out: IC50 hTopo I Assay
T1 construct: purchased Topogen Inc., Port Orange, USA TG1015
T1 sequence (P11387 1-765): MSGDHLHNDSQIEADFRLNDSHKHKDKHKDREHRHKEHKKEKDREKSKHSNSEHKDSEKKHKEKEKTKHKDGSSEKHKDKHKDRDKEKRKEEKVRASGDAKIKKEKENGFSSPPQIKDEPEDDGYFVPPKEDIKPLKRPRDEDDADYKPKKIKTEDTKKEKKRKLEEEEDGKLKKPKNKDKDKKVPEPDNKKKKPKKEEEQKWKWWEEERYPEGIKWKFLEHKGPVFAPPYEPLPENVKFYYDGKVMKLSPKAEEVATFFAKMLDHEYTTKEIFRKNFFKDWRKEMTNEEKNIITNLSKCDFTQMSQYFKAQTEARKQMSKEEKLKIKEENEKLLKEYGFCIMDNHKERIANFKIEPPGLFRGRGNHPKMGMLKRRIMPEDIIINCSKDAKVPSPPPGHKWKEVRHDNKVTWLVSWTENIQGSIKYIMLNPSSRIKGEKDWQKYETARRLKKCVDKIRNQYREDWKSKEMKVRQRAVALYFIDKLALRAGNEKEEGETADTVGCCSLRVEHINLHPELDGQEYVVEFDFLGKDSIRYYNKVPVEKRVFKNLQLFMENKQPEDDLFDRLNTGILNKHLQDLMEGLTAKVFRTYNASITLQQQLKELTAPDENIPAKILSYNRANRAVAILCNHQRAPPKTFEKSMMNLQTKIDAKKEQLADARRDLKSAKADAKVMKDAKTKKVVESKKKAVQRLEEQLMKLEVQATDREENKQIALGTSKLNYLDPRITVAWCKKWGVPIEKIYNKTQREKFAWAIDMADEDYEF

[9] = tested on: Enterococcus faecalis (5 strains); experiment: MIC range, broader panel of Quotient Bioresearch strains (Table 3); conditions: for MIC50: read-out: MIC Range Median, Enterococcus faecalis (5 strains)
[10] = tested on: Acinetobacter baumannii (12 strains); experiment: MIC range, broader panel of Quotient Bioresearch strains (Table 4); type: cell-based; conditions: for MIC50: read-out: MIC Range Median, Acinetobacter baumannii (12 strains)
[11] = Metabolic stability in liver microsomes +/- S9 fraction (Table 8); type: in vitro ADME; conditions: 1 μM
Experimental: Metabolic stability of a select number of examples was tested in liver microsomes+/−addition of S9 fraction as described by Kuhnz, W. and Gieschen, H. (1998), Drug Metab. Dispos., 1120-1127. Test concentration was 1 μM and HPLC/MS-MS was used for detection.

[12] = tested on: Escherichia coli (6 strains); experiment: MIC range, broader panel of Quotient Bioresearch strains (Table 4); type: cell-based; conditions: for MIC50: read-out: MIC Range Median, Escherichia coli (6 strains)
[13] = tested on: Acinetobacter baumannii, quinolone-resistant strains (Quotient Bioresearch catalogue); experiment: MIC against pathogens resistant against quinolones (Table 5); type: cell-based; conditions: Acinetobacter baumannii, GN54
[14] = tested on: Pseudomonas aeruginosa (12 strains); experiment: MIC range, broader panel of Quotient Bioresearch strains (Table 4); type: cell-based; conditions: for MIC50: read-out: MIC Range Median, Pseudomonas aeruginosa (12 strains)
[15] = tested on: Enterococcus faecium (3 strains); experiment: MIC range, broader panel of Quotient Bioresearch strains (Table 3); conditions: for MIC: read-out: MIC Range Low, Enterococcus faecium (3 strains); for MIC50: read-out: MIC Range Median, Enterococcus faecium (3 strains)
[16] = tested on: Bacterial strains injected into thigh muscles; type: in vivo, mice
[17] = High of the strain panel, read-out: MIC Range High, Haemophilus influenza (5 strains)
[18] = Low of the strain panel, read-out: MIC Range Low, Haemophilus influenza (5 strains)
[19] = read-out: MIC Range High, Group C Streptococcus (4 strains)
[20] = read-out: MIC Range Low, Group C Streptococcus (4 strains)
[21] = read-out: MIC Range High, Streptococcus pyogenes (4 strains)
[22] = read-out: MIC Range Low, Streptococcus pyogenes (4 strains)
[23] = read-out: MIC Range High, Klebsiella pneumonia (4 strains)
[24] = read-out: MIC Range Low, Klebsiella pneumonia (4 strains)
[25] = read-out: MIC Range Low, Staphylococcus aureus (16 strains)
[26] = read-out: MIC Range High, Burkholderia cepacia (5 strains)
[27] = read-out: MIC Range Low, Burkholderia cepacia (5 strains)
[28] = read-out: MIC Range High, Enterococcus faecalis (5 strains)
[29] = read-out: MIC Range Low, Enterococcus faecalis (5 strains)
[30] = read-out: MIC Range High, Acinetobacter baumannii (12 strains)
[31] = read-out: MIC Range Low, Acinetobacter baumannii (12 strains)
[32] = read-out: MIC Range High, Escherichia coli (6 strains)
[33] = read-out: MIC Range Low, Escherichia coli (6 strains)
[34] = read-out: MIC Range High, Pseudomonas aeruginosa (12 strains)
[35] = read-out: MIC Range Low, Pseudomonas aeruginosa (12 strains)

Sequence of bacterial topoisomerase IV (P20083 whole entry): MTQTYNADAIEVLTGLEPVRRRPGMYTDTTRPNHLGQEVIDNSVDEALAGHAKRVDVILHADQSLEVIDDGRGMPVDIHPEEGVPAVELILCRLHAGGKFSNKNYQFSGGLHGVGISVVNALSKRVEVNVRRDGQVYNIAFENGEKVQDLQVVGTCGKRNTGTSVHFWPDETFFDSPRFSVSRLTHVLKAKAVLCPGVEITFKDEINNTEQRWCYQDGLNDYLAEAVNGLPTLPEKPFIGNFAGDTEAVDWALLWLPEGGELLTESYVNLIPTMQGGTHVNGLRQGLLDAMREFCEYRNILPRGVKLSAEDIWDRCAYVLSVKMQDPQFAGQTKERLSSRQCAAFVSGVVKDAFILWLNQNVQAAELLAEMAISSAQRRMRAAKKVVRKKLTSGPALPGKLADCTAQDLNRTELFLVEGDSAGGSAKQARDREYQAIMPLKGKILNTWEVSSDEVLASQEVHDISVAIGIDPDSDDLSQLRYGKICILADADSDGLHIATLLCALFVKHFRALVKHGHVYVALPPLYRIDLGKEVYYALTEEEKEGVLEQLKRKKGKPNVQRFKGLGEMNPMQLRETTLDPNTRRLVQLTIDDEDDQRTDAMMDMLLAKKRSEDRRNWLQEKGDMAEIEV
Sequence of bacterial topoisomerase IV (P0AFI2 whole entry): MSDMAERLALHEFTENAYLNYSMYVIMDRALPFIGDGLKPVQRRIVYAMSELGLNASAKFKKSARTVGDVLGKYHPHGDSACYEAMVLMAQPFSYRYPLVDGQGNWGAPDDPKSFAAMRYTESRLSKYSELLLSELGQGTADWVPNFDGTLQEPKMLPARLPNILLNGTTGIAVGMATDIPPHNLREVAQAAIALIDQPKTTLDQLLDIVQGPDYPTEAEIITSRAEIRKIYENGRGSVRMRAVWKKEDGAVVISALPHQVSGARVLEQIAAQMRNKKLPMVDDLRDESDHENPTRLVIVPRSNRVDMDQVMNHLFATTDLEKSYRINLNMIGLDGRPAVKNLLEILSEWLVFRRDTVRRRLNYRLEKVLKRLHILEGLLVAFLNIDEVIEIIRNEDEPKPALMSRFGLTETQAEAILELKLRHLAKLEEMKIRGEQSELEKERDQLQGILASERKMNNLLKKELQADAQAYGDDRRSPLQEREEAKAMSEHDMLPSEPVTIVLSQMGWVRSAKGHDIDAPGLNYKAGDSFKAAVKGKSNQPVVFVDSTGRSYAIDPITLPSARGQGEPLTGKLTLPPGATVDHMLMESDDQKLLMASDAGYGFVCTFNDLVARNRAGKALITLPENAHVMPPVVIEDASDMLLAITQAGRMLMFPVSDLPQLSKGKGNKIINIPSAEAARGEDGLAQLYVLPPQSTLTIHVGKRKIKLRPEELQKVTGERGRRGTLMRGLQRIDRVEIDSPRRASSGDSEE
Sequence of bacterial gyrase (P0AES4 whole entry, one chain of several): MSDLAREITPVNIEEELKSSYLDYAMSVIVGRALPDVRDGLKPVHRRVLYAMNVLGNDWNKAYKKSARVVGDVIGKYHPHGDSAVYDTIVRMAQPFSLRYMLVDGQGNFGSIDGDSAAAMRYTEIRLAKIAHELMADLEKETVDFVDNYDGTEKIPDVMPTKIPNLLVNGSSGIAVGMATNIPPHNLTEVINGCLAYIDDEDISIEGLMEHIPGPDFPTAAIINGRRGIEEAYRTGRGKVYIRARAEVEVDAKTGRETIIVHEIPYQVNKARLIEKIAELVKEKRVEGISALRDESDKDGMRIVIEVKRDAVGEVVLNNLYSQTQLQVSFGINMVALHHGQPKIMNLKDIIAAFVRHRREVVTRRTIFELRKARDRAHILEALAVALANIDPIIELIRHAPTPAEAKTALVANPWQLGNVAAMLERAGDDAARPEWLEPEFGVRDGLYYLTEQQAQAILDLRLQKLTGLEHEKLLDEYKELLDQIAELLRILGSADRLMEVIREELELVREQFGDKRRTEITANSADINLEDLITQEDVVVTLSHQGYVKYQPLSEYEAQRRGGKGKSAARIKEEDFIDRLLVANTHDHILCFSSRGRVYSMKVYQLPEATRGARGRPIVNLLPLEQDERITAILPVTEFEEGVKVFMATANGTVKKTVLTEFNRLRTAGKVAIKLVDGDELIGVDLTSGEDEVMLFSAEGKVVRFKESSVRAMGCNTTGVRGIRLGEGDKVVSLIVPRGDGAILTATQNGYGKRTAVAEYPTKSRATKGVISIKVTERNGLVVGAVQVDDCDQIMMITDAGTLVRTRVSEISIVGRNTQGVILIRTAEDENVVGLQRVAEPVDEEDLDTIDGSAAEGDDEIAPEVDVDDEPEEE

Cc1c(-c2cc(F)c(N)cc2F)ccn2c(=O)c(C(=O)[O-])cc(C3CC3)c12.[K+] [Example 28 K salt, potassium 8-(4-amino-2,5-difluoro-phenyl)-1-cyclopropyl-9-methyl-4-oxo-4H-quinolizine-3-carboxylate]
MIC50 [1]: ≤ 0.015 µg/mL | MIC [1, 17]: ≤ 0.015 µg/mL | MIC [1, 18]: ≤ 0.015 µg/mL | MIC [2, 19]: 0.06 µg/mL | MIC [2, 20]: 0.03 µg/mL | MIC50 [2]: 0.045 µg/mL | MIC [3, 21]: 0.06 µg/mL | MIC [3, 22]: 0.03 µg/mL | MIC50 [3]: 0.06 µg/mL | MIC [4, 23]: > 32 µg/mL | MIC [4, 24]: 0.12 µg/mL | MIC50 [4]: 18 µg/mL | MIC ([5]; read-out: MIC Range High, Staphylococcus aureus (16 strains)): 0.12 µg/mL | MIC [5, 25]: ≤ 0.015 µg/mL | MIC50 [5]: 0.06 µg/mL | solubility at 24 h (physchem; fassgf or other biorelevant): 153 µM | solubility at 24 h (physchem; pH 7.4, aqueous buffer): 6 µM | solubility at 24 h (physchem; simulated gastric fluid): 12 µM | pIC50 (bacterial gyrase): 6.17 | MIC [6]: 0.03 µg/mL | MIC50 [6]: 0.06 µg/mL | MIC [7, 26]: 0.5 µg/mL | MIC [7, 27]: 0.12 µg/mL | MIC50 [7]: 0.25 µg/mL | pIC50 [8]: ≥ 5.07 | pIC50 (human topoisomerase I): 3.87 | MIC [9, 28]: 0.5 µg/mL | MIC [9, 29]: ≤ 0.015 µg/mL | MIC50 [9]: 0.25 µg/mL | MIC [10, 30]: 16 µg/mL | MIC [10, 31]: 0.06 µg/mL | MIC50 [10]: 8 µg/mL | Mean Parent Remaining ([11]; Liver microsomes + S9, human): 93% | Mean Parent Remaining ([11]; Liver microsomes + S9, mouse): 48% | Mean Parent Remaining ([11]; Liver microsomes, human): 97% | Mean Parent Remaining ([11]; Liver microsomes, mouse): 30% | MIC [12, 32]: 32 µg/mL | MIC [12, 33]: 0.03 µg/mL | MIC50 [12]: 16 µg/mL | MIC [13]: 2 µg/mL | MIC [14, 34]: > 32 µg/mL | MIC [14, 35]: 1 µg/mL | MIC50 [14]: 6 µg/mL | MIC [15]: 0.12 µg/mL | MIC50 [15]: 0.25 µg/mL

O=C(O)c1cn(C2CC2)c2cc(N3CCNCC3)c(F)cc2c1=O [Ciprofloxacin, reference compound]
Log reduction (LgR) from vehicle control (CFU/g) ([16]; MRSA ATCC 43300, mouse thigh, 20 mg/kg i.v. TDS): 2.36 | pIC50 (human topoisomerase I): < 3.82

Cc1c(-c2ccc(N)nc2)ccn2c(=O)c(C(=O)[O-])cc(C3CC3)c12.[K+] [Example 21 K salt, potassium 8-(6-amino-pyridin-3-yl)-1-cyclopropyl-9-methyl-4-oxo-4H-quinolizine-3-carboxylate]
MIC50 [1]: ≤ 0.015 µg/mL | MIC [1, 17]: ≤ 0.015 µg/mL | MIC [1, 18]: ≤ 0.015 µg/mL | MIC [2, 19]: 0.06 µg/mL | MIC [2, 20]: 0.03 µg/mL | MIC50 [2]: 0.03 µg/mL | MIC [3, 21]: 0.12 µg/mL | MIC [3, 22]: 0.06 µg/mL | MIC50 [3]: 0.06 µg/mL | MIC [4, 23]: 32 µg/mL | MIC [4, 24]: 0.06 µg/mL | MIC50 [4]: 9 µg/mL | MIC [5, 25]: ≤ 0.015 µg/mL | MIC50 [5]: 0.25 µg/mL | solubility at 24 h (physchem; fassgf or other biorelevant): 200 µM | solubility at 24 h (physchem; pH 7.4, aqueous buffer): 200 µM | solubility at 24 h (physchem; simulated gastric fluid): 200 µM | pIC50 (bacterial gyrase): ≥ 5.83 | MIC [6]: 0.06 µg/mL | MIC50 [6]: 0.06 µg/mL | Log reduction (LgR) from vehicle control (CFU/g) ([16]; E. coli ATCC 25922, mouse thigh, 30 mg/kg TDS p.o.): 3.13 | Log reduction (LgR) from vehicle control (CFU/g) ([16]; MRSA ATCC 43300, mouse thigh, 30 mg/kg TDS p.o.): 4.93 | MIC [7, 26]: 0.25 µg/mL | MIC [7, 27]: 0.12 µg/mL | MIC50 [7]: 0.25 µg/mL | pIC50 [8]: ≥ 5.63 | MIC [9, 28]: 2 µg/mL | MIC [9, 29]: 0.03 µg/mL | MIC50 [9]: 0.12 µg/mL | MIC [10, 30]: 16 µg/mL | MIC [10, 31]: 0.03 µg/mL | MIC50 [10]: 4 µg/mL | Mean Parent Remaining ([11]; Liver microsomes + S9, human): 93% | Mean Parent Remaining ([11]; Liver microsomes + S9, mouse): 97% | Mean Parent Remaining ([11]; Liver microsomes, human): 85% | Mean Parent Remaining ([11]; Liver microsomes, mouse): 87% | MIC [12, 32]: 32 µg/mL | MIC [12, 33]: ≤ 0.015 µg/mL | MIC50 [12]: 16 µg/mL | MIC [13]: 4 µg/mL | MIC [14, 34]: 32 µg/mL | MIC [14, 35]: 0.5 µg/mL | MIC50 [14]: 8 µg/mL | MIC [15]: 0.25 µg/mL | MIC50 [15]: 1 µg/mL
